# Data published in US20260193229A1, “BRISC DEUBIQUITINATING ENZYME INHIBITORS” (THE TRUSTEES OF THE UNIVERSITY OF PENNSYLVANIA, priority 2022, published 2026).
# What was measured:
# BRISC = target: T1, BRISC (Homo sapiens, UniProt P46736+Q15018); experiment: BRISC DUB inhibition assay with quenched K63-linked di-ubiquitin substrate (TAMRA fluorescence); type: biochemical; conditions: Table 1, Activity Range Table
# T1 construct: made in house; host or cells: insect cells (MultiBac baculovirus)
# Experimental: High throughput screening. A baculoviral expression system was established to purify milligram quantities of the entire BRISC complex from insect cells. The MultiBac system was used to clone all 4 components of the BRISC complex into one vector which was then packaged into the baculovirus genome using the methods described in Zeqiraj et al., 2015 (Mol. Cell).
# The assay buffer included: 50 mM HEPES-NaOH, pH 7.0; 100 mM NaCl; 1 mM DTT; 1 mg/ml BSA; and 0.03% Brij-35. BRISC was assayed at 1 nM (final concentration) with the substrate at 500 nM (final concentration). The final reaction volume was 20 μl in each 384 plate well (Corning, #3573; black, low flange, flat bottom) with a final concentration of compounds of 10 μM.
# A 5 ml of enzyme solution with BRISC at 2 nM in assay buffer was made by adding 10 μl of BRISC working stock (1 μM) to 5 ml of assay buffer. A 5 ml of substrate solution was made with […] of K63-diUbiquitin (made in-house) plus […] of IQF K63-diUbiquitin by adding the appropriate volumes of diUbiquitins to 5 ml of assay buffer. 45 μL of BRISC (enzyme solution) was dispensed into columns 1-11 of a 96 well PCR plate (skirted). Buffer was only dispensed in column 12 (no enzyme control). 45 μl of substrate solution was dispensed into columns 1-12 of a 96 well PCR plate (skirted). The plate was spun down at 3000 rpm (bench top centrifuge) at room temp for 2 min to remove any air bubbles. Using a Biomek FX, liquid handler (Bekman), 10 μl of BRISC (enzyme solution) was dispensed into the 4 quadrants of a 384 well plate. 200 nl of compounds was dispensed into each well of the 384 plates using the pin tool (columns A and B usually contain DMSO only, and serve as controls), and the plates were incubated for 10-15 minutes at room temperature. 10 μl of substrate solution was dispensed into the 4 quadrants of the 384 well plate. The plate was then incubated for 30 min at room temperature in the dark and read with settings suitable for detecting TAMRA fluorescence (excitation wavelength of 540 nm and emission wavelength of 580 nm). A PHERAStar plate (BMG labtech) reader was used with a gain value of 570. The Intensity/Background (I/Bg), defined as [(Average of columns 1 and 2; DMSO controls)/(Average of columns 23 and 24; no enzyme controls)], were about 5.
# The activities of the compounds disclosed in the present disclosure in inhibiting BRCC36 enzyme activity was measured in accordance with the method disclosed in Example 2.
# USP2 = target: T2, USP2 (Homo sapiens, UniProt O75604); experiment: Selectivity counter-assay against USP2; type: biochemical; conditions: FIG. 6C / 7A
# T2 sequence (O75604 1-605): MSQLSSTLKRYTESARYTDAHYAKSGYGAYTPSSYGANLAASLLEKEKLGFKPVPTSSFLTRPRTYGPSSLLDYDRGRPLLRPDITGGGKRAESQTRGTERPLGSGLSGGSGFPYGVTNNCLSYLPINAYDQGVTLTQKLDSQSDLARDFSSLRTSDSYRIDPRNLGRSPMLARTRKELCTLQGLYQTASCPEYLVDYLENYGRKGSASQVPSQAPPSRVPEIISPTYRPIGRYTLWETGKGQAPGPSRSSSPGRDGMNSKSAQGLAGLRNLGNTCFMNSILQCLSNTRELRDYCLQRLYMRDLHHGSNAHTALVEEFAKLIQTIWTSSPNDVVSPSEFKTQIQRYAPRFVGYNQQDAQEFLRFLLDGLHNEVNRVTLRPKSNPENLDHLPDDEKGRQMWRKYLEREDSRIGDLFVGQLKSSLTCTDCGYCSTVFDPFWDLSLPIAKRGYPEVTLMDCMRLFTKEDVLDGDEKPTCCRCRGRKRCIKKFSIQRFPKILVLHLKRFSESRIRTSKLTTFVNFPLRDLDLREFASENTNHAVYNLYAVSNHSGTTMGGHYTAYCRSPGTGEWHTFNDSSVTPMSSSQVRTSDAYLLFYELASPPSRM
# trypsin = experiment: Selectivity counter-assay against trypsin; type: biochemical; conditions: FIG. 6C / 7A
# [1] = target: ARISC (BRCC36-Abraxas-BRCC45-MERIT40) (Homo sapiens, UniProt P46736); experiment: Cross-reactivity against ARISC holoenzyme; type: biochemical; conditions: FIG. 7A
# [2] = target: RAP80 (BRCC36-Abraxas-BRCC45-MERIT40-RAP80) complex (Homo sapiens, UniProt P46736); experiment: Cross-reactivity against RAP80 holoenzyme; type: biochemical; conditions: FIG. 7A
# BRCC36 enzyme activity = target: T3, BRCC36 enzyme activity (Homo sapiens, UniProt P46736+Q15018); experiment: Mode of inhibition: increasing di-Ubiquitin substrate and free Zn2+; type: biochemical
# T3 construct: made in house; host or cells: insect cells (MultiBac baculovirus)
# human cells = experiment: Cellular toxicity in human cells; type: cell-based; conditions: 5 μM
Compound,IC50 (BRISC) [µM],selectivity for BRISC versus USP2 (USP2),selectivity for BRISC versus trypsin (trypsin),cross reactivity to ARISC holoenzyme [1],cross reactivity to RAP80 holoenzyme [2],mode of inhibition (BRCC36 enzyme activity),cellular toxicity (human cells)
"O=C(NC1CCNCC1)c1nn(C(=O)c2c(Cl)cccc2Cl)cc1NC(=O)c1c(Cl)cccc1Cl [Compound 1, 4-(2,6-dichlorobenzamido)-1-(2,6-dichlorobenzoyl)-N-(piperidin-4-yl)-1H-pyrazole-3-carboxamide]",1 to 10,selectivity for BRISC,selectivity for BRISC,no significant cross reactivity,no significant cross reactivity,non-competitive inhibitors,
"CS(=O)(=O)n1cc(NC(=O)c2c(Cl)cccc2Cl)c(C(=O)NC2CCNCC2)n1 [Compound 2, 4-(2,6-dichlorobenzamido)-1-(methylsulfonyl)-N-(piperidin-4-yl)-1H-pyrazole-3-carboxamide]",1 to 10,,,,,,no detectable cellular toxicity
